Assay results reported in US7026318B2 (Shionogi & Co., Ltd., priority 2000, dated 2006).
pIC50: −log10 of the molar value. Like-named read-outs stand apart in the source and are kept apart here.

Assays:
[1] = biological target: human type I enzyme (sPLA2) (Homo sapiens, UniProt P04054); assay: Inhibition test of human secretory phospholipase A2, chromogenic assay, type I enzyme; assay type: biochemical; conditions: recombinant human sPLA2 type I, chromogenic assay, 30 min; read-out: IC50 type I
[2] = biological target: T1, human type II enzyme (sPLA2) (Homo sapiens, UniProt P14555); assay: Inhibition test of human secretory phospholipase A2, chromogenic assay, type II enzyme; assay type: biochemical; conditions: human sPLA2 type II, chromogenic assay, 30 min; read-out: IC50 type II
T1 sequence (P14555 21-144): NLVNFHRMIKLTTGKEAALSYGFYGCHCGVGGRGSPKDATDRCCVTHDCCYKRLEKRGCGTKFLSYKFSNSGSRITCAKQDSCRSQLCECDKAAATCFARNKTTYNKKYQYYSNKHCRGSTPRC

human type V sPLA2 = biological target: T2, human type V sPLA2 (Homo sapiens, UniProt P39877); assay: Inhibition test of human secretory phospholipase A2, chromogenic assay, type V enzyme; assay type: biochemical; conditions: human sPLA2 type V (CHO supernatant), chromogenic assay, 45 min; read-out: IC50 type V
T2 construct: made in house; unpurified culture supernatant
T2 sequence (P39877 21-138): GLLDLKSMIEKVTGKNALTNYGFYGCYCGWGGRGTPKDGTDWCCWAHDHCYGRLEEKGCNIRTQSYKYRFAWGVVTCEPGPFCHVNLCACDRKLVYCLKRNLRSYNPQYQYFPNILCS

human type X sPLA2 [3] = biological target: T3, human type X sPLA2 (Homo sapiens, UniProt O15496); assay: Inhibition test of human secretory phospholipase A2, chromogenic assay, type X enzyme; assay type: biochemical
T3 construct: made in house; unpurified culture supernatant
T3 sequence (O15496 43-165): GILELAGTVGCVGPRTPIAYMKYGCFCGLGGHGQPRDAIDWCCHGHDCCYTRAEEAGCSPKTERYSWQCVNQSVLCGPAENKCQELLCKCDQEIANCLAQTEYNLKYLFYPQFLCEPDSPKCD

human type X sPLA2 [4] = biological target: T3, human type X sPLA2; assay: Human type X sPLA2-induced oleic acid release in human colon carcinoma HT-29 cells; assay type: cell-based; conditions: compound 10 μM, 100 nM human type X sPLA2, 30 min, percentage of the increase by type X sPLA2 (no treatment group = 100)
Procedure: Examination 15: Effects of sPLA2 Inhibitors on Human Type X sPLA2-Induced Oleic Acid Release in Human Colon Calcinoma Cell Lines, HT-29 Cells.
Human colon calcinoma cell lines, HT-29 cells (obtained from ATCC) were cultured in DMEM supplemented with 10% fetal calf serum. The cells were washed by phosphate-buffered saline (PBS), detached from culture plates by treatment with trypsin/EDTA solution and further washed by PBS. The resulting cells were resuspended in Hanks' buffered saline containing 0.1% bovine serum albumin (BSA) at a density of 12.5×10^6 cells/mL. Aliquots of the cell suspension (0.4 ml) were transferred into polypropylene tubes and test compounds dissolved in DMSO solution (final concentration; 10 μM) were added. After preincubation for 10 min at 37° C., 100 nM purified human type X sPLA2 enzyme (Hanasaki et al J. Biol. Chem. (1999) 274, 34203–34211) was added (final volume of 0.5 mL). After incubation for 30 min at 37° C., the reaction was stopped by the addition of 2 ml Dole's reagent (heptane:2-propanol:1M H2SO4=10:40:1, v/v/v).

human type X sPLA2 [5] = biological target: T3, human type X sPLA2; assay: Type X sPLA2-induced PGE2 production in human colon carcinoma HT-29 cells; assay type: cell-based; conditions: compound 10 μM; TNF-α-treated HT-29 cells; 100 nM human type X sPLA2, 3 h; percentage of PGE2 produced by type X sPLA2 (no treatment group = 100)
Procedure: Examination 16: Effects of sPLA2 Inhibitors on Type X sPLA2-Induced PGE2 Production in Human Colon Carcinoma Cell Lines, HT-29 Cells.
HT-29 cells were seeded into 24-well plates at a density of 2.5×10^5 cells/well. After incubation for 24 h, the cells were washed three times with PBS and incubated with 30 ng/mL of recombinant human tumor necrosis factor-α (R&D Systems, Inc.) in DMEM medium supplemented with 10% fetal bovine serum for 18 h at 37° C. After washing with PBS, the cells were preincubated with or without test compounds (at a final concentration of 10 μM; dissolved in DMSO) in Hanks' buffered saline containing 0.1% BSA for 10 min at 37° C., and then stimulated with 100 nM purified human type X sPLA2 enzyme in a final volume of 0.5 mL. After incubation for 3 h at 37° C, the culture supernatant was collected following the centrifugation for the removal of floating cells, and its PGE2 content was quantified with an enzyme-immunoassay kit (Cayman Chemicals Co.). From each data, the value in the absence of type X sPLA2 was subtracted. The amount of PGE2 in the presence of each test compound was expressed as the percentage of the PGE2 content produced by the addition of type X sPLA2 enzyme.

[6] = human sPLA2 type X (CHO supernatant), chromogenic assay, 30 min, read-out: IC50 type X

Sequence of human type I enzyme (sPLA2) (P04054 23-148): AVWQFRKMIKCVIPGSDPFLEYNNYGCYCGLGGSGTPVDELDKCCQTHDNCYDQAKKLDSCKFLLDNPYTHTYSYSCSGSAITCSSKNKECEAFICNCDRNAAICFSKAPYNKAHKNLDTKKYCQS

| Structure (SMILES) | melting point [°C] | pIC50 (human type X sPLA2 [3]; [6]) | pIC50 [1] | pIC50 [2] | pIC50 (human type V sPLA2) | pIC50 (human type X sPLA2 [3]) | Oleic acid release (human type X sPLA2 [4]) [%] | PGE2 production (human type X sPLA2 [5]) [%] |
| --- | --- | --- | --- | --- | --- | --- | --- | --- |
| CC(C)Cc1c(C(=O)C(N)=O)c2c(OCC(=O)NS(C)(=O)=O)cccc2n1Cc1ccccc1 [Compound I-23] |  |  | < 6.15 | < 6.00 | < 6.00 | 8.22 | −2.0 ± 5.1 | 9.0 ± 28.1 |
| Cc1cc(OCC(=O)NS(=O)(=O)c2ccccc2)c2c(C(=O)C(N)=O)c(CC(C)C)n(Cc3ccccc3)c2c1 [Compound I-24] | 145 to 147 |  | < 6.15 | < 6.00 | < 6.00 | 7.64 |  |  |
| Cc1cn2c(Cc3ccccc3)c(Cc3ccccc3)c(C(=O)C(N)=O)c2c(OCC(=O)O)n1 [Compound I-7] | 258 to 260 |  |  |  |  |  |  |  |
| CC(C)Cc1c(C(=O)C(N)=O)c2c(OCC(=O)NS(=O)(=O)c3ccccc3)cccc2n1Cc1ccccc1 [Compound I-21] |  |  |  |  |  | 8.10 | 11.8 ± 0.6 | −6.6 ± 7.1 |
| Cc1cn2c(Cc3ccccc3)c(CC(C)C)c(CC(N)=O)c2c(OCC(=O)NS(=O)(=O)C(C)C)n1 [Compound I-36] | 162 to 163 |  |  |  |  |  |  |  |
| CCCCc1c(C(=O)C(N)=O)c2c(OCC(=O)O)nc(C)cn2c1Cc1ccccc1 [Compound I-5] | 205 to 207 |  |  |  |  |  |  |  |
| Cc1cc(OCC(=O)O)c2c(C(=O)C(N)=O)c(CC(C)C)n(Cc3ccccc3)c2c1 [Compound I-13] | 220 to 221.5 |  | < 6.15 | < 6.00 | < 6.00 | 7.55 |  |  |
| CC(C)Cc1c(C(=O)C(N)=O)c2c(OCC(=O)O)cccc2n1Cc1ccc(F)cc1 [Compound I-11] | 172 to 173.5 |  | < 6.15 | < 6.00 | < 6.00 | 7.92 |  |  |
| Cc1cn2c(CC3CCCCC3)c(CC(C)C)c(C(=O)C(N)=O)c2c(OCC(=O)O)n1 [Compound I-2] | 209 to 210 | 7.37 | < 6.15 | < 6.00 | < 6.00 |  |  |  |
| CC(C)Cc1c(C(=O)C(N)=O)c2c(OCC(=O)O)cccc2n1CC1CCCCC1 [Compound I-12] | 195.5 to 197 |  | < 6.15 | < 6.00 | < 6.00 | 7.49 |  |  |
| Cc1cn2c(CC3CCCC3)c(CC(C)C)c(C(=O)C(N)=O)c2c(OCC(=O)O)n1 [Compound I-3] | 193 to 194.5 | 7.32 | < 6.15 | < 6.00 | < 6.00 |  |  |  |
| Cc1cc(OCC(=O)NS(C)(=O)=O)c2c(C(=O)C(N)=O)c(CC(C)C)n(Cc3ccccc3)c2c1 [Compound I-25] | 211 to 214 |  | < 6.15 | < 6.00 | < 6.00 | 8.15 |  |  |
| Cc1cn2c(Cc3ccccc3)c(CC(C)C)c(C(=O)C(N)=O)c2c(OCC(=O)O)n1 [Compound I-1] | 206 to 208 | 7.49 | < 6.15 | < 6.00 | < 6.00 |  |  |  |

More lines, main results first:

| melting point [°C] | pIC50 (human type X sPLA2 [3]; [6]) | Structure (SMILES) | pIC50 [1] | pIC50 [2] | pIC50 (human type V sPLA2) | pIC50 (human type X sPLA2 [3]) | Oleic acid release (human type X sPLA2 [4]) [%] | PGE2 production (human type X sPLA2 [5]) [%] |
| --- | --- | --- | --- | --- | --- | --- | --- | --- |
| 205 to 207 |  | CCCS(=O)(=O)NC(=O)COc1nc(C)cn2c(Cc3ccccc3)c(CC(C)C)c(C(=O)C(N)=O)c12 [Compound I-18] |  |  |  |  |  |  |
| 202 to 203 |  | Cc1cn2c(CCc3ccccc3)c(CC(C)C)c(C(=O)C(N)=O)c2c(OCC(=O)O)n1 [Compound I-4] |  |  |  |  | 13.8 ± 1.8 | 35.3 ± 40.2 |
| 219.5 to 221 |  | CCCCS(=O)(=O)NC(=O)COc1cccc2c1c(C(=O)C(N)=O)c(CC(C)C)n2Cc1ccccc1 |  |  |  |  |  |  |
| 211 to 212 |  | Cc1cn2c(Cc3ccccc3)c(CC(C)C)c(C(=O)C(N)=O)c2c(OCC(=O)NS(C)(=O)=O)n1 [Compound I-16] |  |  |  |  |  |  |
|  | 7.34 | Cc1cc(OCC(=O)NS(=O)(=O)c2ccccc2)c2c(C(=O)C(N)=O)c(CC(C)C)c(Cc3ccccc3)n2n1 [Compound I-32] | < 6.15 | < 6.00 | < 6.00 |  |  |  |
| 200 to 201 |  | CCS(=O)(=O)NC(=O)COc1cccc2c1c(C(=O)C(N)=O)c(CC(C)C)n2Cc1ccccc1 |  |  |  |  |  |  |
| 245 to 247 | 7.66 | Cc1cc(OCC(=O)O)c2c(C(=O)C(N)=O)c(CC(C)C)c(Cc3ccccc3)n2n1 [Compound I-9] | < 6.15 | < 6.00 | < 6.00 |  |  |  |
| 193 to 195 | 7.43 | Cc1cn2c(Cc3ccccc3)c(CC(C)C)c(C(=O)C(N)=O)c2c(OCC(=O)NS(=O)(=O)c2ccccc2)n1 [Compound I-15] | < 6.15 | < 6.00 | < 6.00 |  |  |  |
| 189 to 190 |  | CC(C)Cc1c(CC(N)=O)c2c(OCC(=O)NS(=O)(=O)C(C)C)cccc2n1Cc1ccccc1 [Compound I-34] |  |  |  |  |  |  |
| 188 to 190 |  | Cc1cn2c(Cc3ccccc3)c(CC(C)C)c(CC(N)=O)c2c(OCC(=O)NS(C)(=O)=O)n1 [Compound I-35] |  |  |  |  |  |  |
| 181 to 183 |  | CCCS(=O)(=O)NC(=O)COc1cccc2c1c(C(=O)C(N)=O)c(CC(C)C)n2Cc1ccccc1 |  |  |  |  |  |  |
| 196 to 198 |  | Cc1cn2c(Cc3ccccc3)c(CC(C)C)c(C(=O)C(N)=O)c2c(OCC(=O)NS(=O)(=O)C(C)C)n1 [Compound I-19] |  |  |  |  |  |  |
| 218.5 to 220 |  | CC(C)Cc1c(C(=O)C(N)=O)c2c(OCC(=O)NS(=O)(=O)C(C)C)cccc2n1Cc1ccccc1 |  |  |  |  |  |  |
| 200.5 to 202 |  | CC(C)Cc1c(C(=O)C(N)=O)c2c(OCC(=O)O)cccc2n1-c1ccccc1 [Compound I-14] |  |  |  |  |  |  |
| 214 to 215 |  | CCS(=O)(=O)NC(=O)COc1nc(C)cn2c(Cc3ccccc3)c(CC(C)C)c(C(=O)C(N)=O)c12 [Compound I-17] |  |  |  |  |  |  |
